The nature of the series: MALDI-TOF screening of Ni^2+ dependent hydrolysis in a combinatorial peptide library. The settings on record: Ni^2+ 2 mM, pH 8.2, 10 mM Tris, score=24/tm. Format: physicochemical. Put shortly: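 MALDI-TOF read-out: appearance of Ser/Thr-X-His-Z-Lys-Phe-Leu-NH2 product signals, plus loss of substrate signals, checked by eye at 2, 4, 6, 8 h. Conditions: 1 mM peptide mixture, 2 mM Ni2+, 10 mM Tris pH 8.2, 37 or 45 °C.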

The mark [1] stands for this setting: CH3CO-Gly-Ala-Ser-X-His-Z-Lys-Phe-Leu-NH2 library, 37° C.
The mark [2] stands for this setting: CH3CO-Gly-Ala-Ser-X-His-Z-Lys-Phe-Leu-NH2 library, 45° C.
Where [3] appears, read: CH3CO-Gly-Ala-Thr-X-His-Z-Lys-Phe-Leu-NH2 library, 37° C.
[4] abbreviates: CH3CO-Gly-Ala-Thr-X-His-Z-Lys-Phe-Leu-NH2 library, 45° C.

On to Ac-GASWHVKFL-NH2 [SWHV], for which the “hydrolysis score from MALDI-TOF screening” value (“hydrolysis score” for short) under setting [1] is reported as 3 (a score of 3 for detection at 8 hours) and the “hydrolysis score” value under setting [2] is listed as 12 (a score of 12, if it was seen to be partially hydrolysed at 2 hours).
The matching figures for Ac-GASWHWKFL-NH2 [SWHW]: 4 (a score of 4 for detection at 6 hours) and 6 (a score of 6 for detection at 4 hours).
On to Ac-GASWHYKFL-NH2 [SWHY], for which the “hydrolysis score” value was 0 (a score of 0 if no trace of the product of hydrolysis was seen after 8 hours of incubation) under setting [1] and 6 (a score of 6 for detection at 4 hours) under setting [2].
For Ac-GASYHAKFL-NH2 [SYHA], in that order: 0 (a score of 0 if no trace of the product of hydrolysis was seen after 8 hours of incubation) and 0 (a score of 0 if no trace of the product of hydrolysis was seen after 8 hours of incubation).
The matching figures for Ac-GASYHDKFL-NH2 [SYHD]: 0 (a score of 0 if no trace of the product of hydrolysis was seen after 8 hours of incubation) and 0 (a score of 0 if no trace of the product of hydrolysis was seen after 8 hours of incubation).
For Ac-GASYHEKFL-NH2 [SYHE], in that order: 0 (a score of 0 if no trace of the product of hydrolysis was seen after 8 hours of incubation) and 0 (a score of 0 if no trace of the product of hydrolysis was seen after 8 hours of incubation).
For the substance Ac-GASYHFKFL-NH2 [SYHF], the “hydrolysis score” value is on record as 3 (a score of 3 for detection at 8 hours) under setting [1] and 4 (a score of 4 for detection at 6 hours) under setting [2].
For Ac-GASYHGKFL-NH2 [SYHG], in that order: 0 (a score of 0 if no trace of the product of hydrolysis was seen after 8 hours of incubation) and 0 (a score of 0 if no trace of the product of hydrolysis was seen after 8 hours of incubation).
For Ac-GASYHHKFL-NH2 [SYHH], in that order: 4 (a score of 4 for detection at 6 hours) and 4 (a score of 4 for detection at 6 hours).
Consider Ac-GASYHIKFL-NH2 [SYHI], for which the “hydrolysis score” value under setting [1] is given as 4 (a score of 4 for detection at 6 hours) and the “hydrolysis score” value under setting [2] is given as 6 (a score of 6 for detection at 4 hours).
The matching figures for Ac-GASYHKKFL-NH2 [SYHK]: 4 (a score of 4 for detection at 6 hours) and 6 (a score of 6 for detection at 4 hours).
The matching figures for Ac-GASYHLKFL-NH2 [SYHL]: 4 (a score of 4 for detection at 6 hours) and 6 (a score of 6 for detection at 4 hours).
With Ac-GASYHMKFL-NH2 [SYHM], the “hydrolysis score” value under setting [1] is listed as 0 (a score of 0 if no trace of the product of hydrolysis was seen after 8 hours of incubation) and the “hydrolysis score” value under setting [2] is reported as 0 (a score of 0 if no trace of the product of hydrolysis was seen after 8 hours of incubation).
For the substance Ac-GASYHNKFL-NH2 [SYHN], the “hydrolysis score” value by setting is: under setting [1], 0 (a score of 0 if no trace of the product of hydrolysis was seen after 8 hours of incubation); under setting [2], 0 (a score of 0 if no trace of the product of hydrolysis was seen after 8 hours of incubation).
As for Ac-GASYHPKFL-NH2 [SYHP], the “hydrolysis score” value was 0 (a score of 0 if no trace of the product of hydrolysis was seen after 8 hours of incubation) under setting [1] and 0 (a score of 0 if no trace of the product of hydrolysis was seen after 8 hours of incubation) under setting [2].
For the substance Ac-GASYHQKFL-NH2 [SYHQ], the “hydrolysis score” value reads like this: under setting [1], 0 (a score of 0 if no trace of the product of hydrolysis was seen after 8 hours of incubation); under setting [2], 0 (a score of 0 if no trace of the product of hydrolysis was seen after 8 hours of incubation).
Consider Ac-GASYHRKFL-NH2 [SYHR], for which the “hydrolysis score” value reads like this: under setting [1], 4 (a score of 4 for detection at 6 hours); under setting [2], 6 (a score of 6 for detection at 4 hours).
For Ac-GASYHSKFL-NH2 [SYHS], in that order: 0 (a score of 0 if no trace of the product of hydrolysis was seen after 8 hours of incubation) and 0 (a score of 0 if no trace of the product of hydrolysis was seen after 8 hours of incubation).
Regarding Ac-GASYHTKFL-NH2 [SYHT], the “hydrolysis score” value under setting [1] is 0 (a score of 0 if no trace of the product of hydrolysis was seen after 8 hours of incubation) and the “hydrolysis score” value under setting [2] is 0 (a score of 0 if no trace of the product of hydrolysis was seen after 8 hours of incubation).
Regarding Ac-GASYHVKFL-NH2 [SYHV], the “hydrolysis score” value was 6 (a score of 6 for detection at 4 hours) under setting [1] and 4 (a score of 4 for detection at 6 hours) under setting [2].
For the substance Ac-GASYHWKFL-NH2 [SYHW], the “hydrolysis score” value under setting [1] is on record as 6 (a score of 6 for detection at 4 hours) and the “hydrolysis score” value under setting [2] was 6 (a score of 6 for detection at 4 hours).
Ac-GASYHYKFL-NH2 [SYHY]: the “hydrolysis score” value under setting [1] was 3 (a score of 3 for detection at 8 hours) and the “hydrolysis score” value under setting [2] is recorded as 4 (a score of 4 for detection at 6 hours).
In the case of Ac-GATAHAKFL-NH2 [TAHA], the “hydrolysis score” value by setting is: under setting [3], 0 (a score of 0 if no trace of the product of hydrolysis was seen after 8 hours of incubation); under setting [4], 0 (a score of 0 if no trace of the product of hydrolysis was seen after 8 hours of incubation).
For Ac-GATAHDKFL-NH2 [TAHD], the “hydrolysis score” value under setting [3] is 0 (a score of 0 if no trace of the product of hydrolysis was seen after 8 hours of incubation) and the “hydrolysis score” value under setting [4] is given as 0 (a score of 0 if no trace of the product of hydrolysis was seen after 8 hours of incubation).
Ac-GATAHFKFL-NH2 [TAHF]: the “hydrolysis score” value is 0 (a score of 0 if no trace of the product of hydrolysis was seen after 8 hours of incubation) under setting [3] and 0 (a score of 0 if no trace of the product of hydrolysis was seen after 8 hours of incubation) under setting [4].
Ac-GATAHGKFL-NH2 [TAHG]: the “hydrolysis score” value reads like this: under setting [3], 0 (a score of 0 if no trace of the product of hydrolysis was seen after 8 hours of incubation); under setting [4], 0 (a score of 0 if no trace of the product of hydrolysis was seen after 8 hours of incubation).
For Ac-GATAHHKFL-NH2 [TAHH], the “hydrolysis score” value runs as follows: under setting [3], 0 (a score of 0 if no trace of the product of hydrolysis was seen after 8 hours of incubation); under setting [4], 0 (a score of 0 if no trace of the product of hydrolysis was seen after 8 hours of incubation).
On to Ac-GATAHIKFL-NH2 [TAHI], for which the “hydrolysis score” value is given as 0 (a score of 0 if no trace of the product of hydrolysis was seen after 8 hours of incubation) under setting [3] and 0 (a score of 0 if no trace of the product of hydrolysis was seen after 8 hours of incubation) under setting [4].
In the case of Ac-GATAHKKFL-NH2 [TAHK], the “hydrolysis score” value runs as follows: under setting [3], 0 (a score of 0 if no trace of the product of hydrolysis was seen after 8 hours of incubation); under setting [4], 0 (a score of 0 if no trace of the product of hydrolysis was seen after 8 hours of incubation).
As for Ac-GATAHLKFL-NH2 [TAHL], the “hydrolysis score” value under setting [3] is on record as 0 (a score of 0 if no trace of the product of hydrolysis was seen after 8 hours of incubation) and the “hydrolysis score” value under setting [4] is reported as 0 (a score of 0 if no trace of the product of hydrolysis was seen after 8 hours of incubation).
As to Ac-GATAHMKFL-NH2 [TAHM], the “hydrolysis score” value under setting [3] is on record as 0 (a score of 0 if no trace of the product of hydrolysis was seen after 8 hours of incubation) and the “hydrolysis score” value under setting [4] is listed as 0 (a score of 0 if no trace of the product of hydrolysis was seen after 8 hours of incubation).
As to Ac-GATAHNKFL-NH2 [TAHN], the “hydrolysis score” value reads like this: under setting [3], 0 (a score of 0 if no trace of the product of hydrolysis was seen after 8 hours of incubation); under setting [4], 0 (a score of 0 if no trace of the product of hydrolysis was seen after 8 hours of incubation).
Turning to Ac-GATAHPKFL-NH2 [TAHP], the “hydrolysis score” value under setting [3] is recorded as 0 (a score of 0 if no trace of the product of hydrolysis was seen after 8 hours of incubation) and the “hydrolysis score” value under setting [4] is given as 0 (a score of 0 if no trace of the product of hydrolysis was seen after 8 hours of incubation).
As to Ac-GATAHQKFL-NH2 [TAHQ], the “hydrolysis score” value reads like this: under setting [3], 0 (a score of 0 if no trace of the product of hydrolysis was seen after 8 hours of incubation); under setting [4], 0 (a score of 0 if no trace of the product of hydrolysis was seen after 8 hours of incubation).
For the substance Ac-GATAHRKFL-NH2 [TAHR], the “hydrolysis score” value is listed as 0 (a score of 0 if no trace of the product of hydrolysis was seen after 8 hours of incubation) under setting [3] and 0 (a score of 0 if no trace of the product of hydrolysis was seen after 8 hours of incubation) under setting [4].

The values are drawn from patent US8969516B2, “Method of hydrolysis of peptide bond” (priority 2006, dated 2015).
